Results reported in US12604895B2, “Pesticidally active cyclic amine compounds” (SYNGENTA CROP PROTECTION AG, priority 2020, dated 2026).

Columns and labels:
Assay type in all cases: in vivo
[1] = test system: Tetranychus urticae (Two-Spotted Spider Mite); experiment: Example B5: Tetranychus urticae (Two-Spotted Spider Mite), feeding/contact activity; conditions: foliar, 192 h, application rate of 200 ppm, mixed population (mobile stages) on sprayed bean leaf discs, 8 days after infestation
Description: Example B5: Tetranychus urticae (Two-Spotted Spider Mite): Feeding/Contact Activity
Bean leaf discs on agar in 24-well microtiter plates were sprayed with aqueous test solutions prepared from 10′000 ppm DMSO stock solutions. After drying the leaf discs were infested with a mite population of mixed ages. The samples were assessed for mortality on mixed population (mobile stages) 8 days after infestation.

[2] = test system: Plutella xylostella (Diamond Back Moth); experiment: Example B3: Plutella xylostella (Diamond Back Moth), artificial diet; conditions: 192 h, application rate of 200 ppm, eggs, treated artificial diet, 8 days after infestation, read-out: control in at least one of the two categories (mortality or growth inhibition)
Description: Example B3: Plutella xylostella (Diamond Back Moth)
24-well microtiter plates with artificial diet were treated with aqueous test solutions prepared from 10′000 ppm DMSO stock solutions by pipetting. After drying, Plutella eggs were pipetted through a plastic stencil onto a gel blotting paper and the plate was closed with it. The samples were assessed for mortality and growth inhibition in comparison to untreated samples 8 days after infestation. The following compounds gave an effect of at least 80% control in at least one of the two categories (mortality or growth inhibition) at an application rate of 200 ppm: P1.2, P1.15, P1.51, P2.1, P2.2, P2.5, P2.10, P2.15, P2.16, P5.1, P5.2, P5.3, P7.1, P8.1

[3] = test system: Diabrotica balteata (Corn Root Worm); experiment: Example B1: Diabrotica balteata (Corn Root Worm), sprayed maize sprouts; conditions: 96 h, application rate of 200 ppm, L2 larvae on sprayed maize sprouts, 4 days after infestation, read-out: control in at least one of the two categories (mortality or growth inhibition)
Description: Example B1: Diabrotica balteata (Corn Root Worm)
Maize sprouts placed onto an agar layer in 24-well microtiter plates were treated with aqueous test solutions prepared from 10′000 ppm DMSO stock solutions by spraying. After drying, the plates were infested with L2 larvae (6 to 10 per well). The samples were assessed for mortality and growth inhibition in comparison to untreated samples 4 days after infestation.
The following compounds gave an effect of at least 80% control in at least one of the two categories (mortality or growth inhibition) at an application rate of 200 ppm: P1.2, P2.1, P2.2, P2.5, P2-17, P3.4, P7.1, P8.1

[4] = test system: Euschistus heros (Neotropical Brown Stink Bug); experiment: Example B2: Euschistus heros (Neotropical Brown Stink Bug), sprayed soybean leaves; conditions: 120 h, application rate of 200 ppm, N2 nymphs on sprayed soybean leaves, 5 days after infestation, read-out: control in at least one of the two categories (mortality or growth inhibition)
Description: Example B2: Euschistus heros (Neotropical Brown Stink Bug)
Soybean leaves on agar in 24-well microtiter plates were sprayed with aqueous test solutions prepared from 10′000 ppm DMSO stock solutions. After drying the leaves were infested with N2 nymphs. The samples were assessed for mortality and growth inhibition in comparison to untreated samples 5 days after infestation.
The following compounds gave an effect of at least 80% control in at least one of the two categories (mortality or growth inhibition) at an application rate of 200 ppm: P2.1., P8.1

| SMILES | mortality at 200 ppm [1] [%] | percent control (mortality or growth inhibition) at 200 ppm [2] [%] | percent control (mortality or growth inhibition) at 200 ppm [3] [%] | percent control (mortality or growth inhibition) at 200 ppm [4] [%] |
| --- | --- | --- | --- | --- |
| Cc1nc(C2CCN(C(=O)c3cc(C#N)c(-c4ccc(C(F)(F)F)cc4)cc3C(F)(F)F)CC2)no1 [Compound P1.1, 5-[4-(5-Methyl-1,2,4-oxadiazol-3-yl)piperidine-1-carbonyl]-4-(trifluoromethyl)-2-[4-(trifluoromethyl)phenyl]benzonitrile] | ≥ 80 |  |  |  |
| CCOc1cc(-c2ccc(C(F)(F)F)cc2)c(C#N)cc1C(=O)N1CCC(CSCC)CC1 [Compound P1.46, 4-Ethoxy-5-[4-(ethylsulfanylmethyl)piperidine-1-carbonyl]-2-[4-(trifluoromethyl)phenyl]-benzonitrile] | ≥ 80 |  |  |  |
| N#Cc1cc(C(=O)N2CCN(c3ncc(Cl)cc3Cl)CC2)c(C(F)(F)F)cc1-c1ccc(C(F)(F)F)cc1 [Compound P2.1, 5-[4-(3,5-Dichloro-2-pyridyl)piperazine-1-carbonyl]-4-(trifluoromethyl)-2-[4-(trifluoromethyl)phenyl]benzonitrile] | ≥ 80 | ≥ 80 | ≥ 80 | ≥ 80 |
| CCOc1cc(-c2ccc(C(F)(F)F)cc2)c(C#N)cc1C(=O)N1CCN(c2ncc(Cl)cc2Cl)CC1 [Compound P2.5, 5-[4-(3,5-Dichloro-2-pyridyl)piperazine-1-carbonyl]-4-ethoxy-2-[4-(trifluoromethyl)-phenyl]-benzonitrile] | ≥ 80 | ≥ 80 | ≥ 80 |  |
| CCC[S+]([O-])CC1CN(C(=O)c2cc(C#N)c(-c3ccc(C(F)(F)F)cc3)cc2C(F)(F)F)C1 (stereo not shown) [Compound P3.7, 5-[3-(Propylsulfinylmethyl)azetidine-1-carbonyl]-4-(trifluoromethyl)-2-[4-(trifluoromethyl)phenyl]-benzonitrile] | ≥ 80 |  |  |  |
| CCCSCC1CN(C(=O)c2cc(C#N)c(-c3ccc(C(F)(F)F)cc3)cc2C(F)(F)F)C1 [Compound P3.9, 5-[3-(propylsulfanylmethyl)azetidine-1-carbonyl]-4-(trifluoromethyl)-2-[4-(trifluoromethyl)-phenyl]benzonitrile] | ≥ 80 |  |  |  |
| Cc1nc(C2CCN(C(=O)c3cc(C#N)c(-c4ccc(C(F)(F)F)cc4)c(C#N)c3C)CC2)no1 [Compound P6.1] | ≥ 80 |  |  |  |
| NC(=S)c1cc(C(=O)N2CCN(c3ncc(Cl)cc3Cl)CC2)c(C(F)(F)F)cc1-c1ccc(C(F)(F)F)cc1 [Compound P8.1, 5-[4-(3,5-Dichloro-2-pyridyl)piperazine-1-carbonyl]-4-(trifluoromethyl)-2-[4-(trifluoromethyl)phenyl]benzenecarbothioamide] | ≥ 80 | ≥ 80 | ≥ 80 | ≥ 80 |
